# Key:
# Assay in all cases: Post-emergence herbicidal action, greenhouse pot trial
# Format in all cases: in vivo
# [1] = tested on: Abutilon theophrasti (ABUTH); conditions: visual rating after about 3 weeks; for pest or weed control at 80 g/ha / pest or weed control at 320 g/ha: Abutilon theophrasti, 504 h; for pest or weed control at 80 g/ha: read-out: Post-emergence effect at 80 g/ha against ABUTH in %; for pest or weed control at 320 g/ha: read-out: Post-emergence effect at 320 g/ha against ABUTH in %
# Method: (§1) Seeds of monocotyledonous and dicotyledonous weeds and crop plants are placed in sandy loam in plastic or organic planting pots, covered with soil and cultivated in a greenhouse under controlled growth conditions. 2 to 3 weeks after sowing, the trial plants are treated at the one-leaf stage. The compounds of the invention, formulated in the form of wettable powders (WP) or as emulsion concentrates (EC), are then sprayed onto the green parts of the plants as aqueous suspension or emulsion with addition of 0.5% additive at a water application rate equivalent to 600 l/ha. After about 3 weeks of keeping the trial plants in the greenhouse under optimum growth conditions, the effect of the preparations is rated visually in comparison to untreated controls. For example, 100% activity=the plants have died, 0% activity=like control plants.
# (§2) Tables B1 to B14 below show the effects of selected compounds of the general formula (I) according to Table 1 on various harmful plants and at an application rate corresponding to 320 g/ha or lower, which were obtained by the trial procedure specified above. The appendices “a”, “b” and “c” give differentiation by dosage used with otherwise the same harmful plants tested.
# (§3) As shown by results from Tables B1 to B19, inventive compounds of the general formula (I) in the case of post-emergence treatment have good herbicidal efficacy against harmful plants, for example Abutilon theophrasti (ABUTH), Alopecurus myosuroides (ALOMY), Amaranthus retroflexus (AMARE), Avena fatua (AVEFA), Digitaria sanguinalis (DIGSA), Echinochloa crus-galli (ECHCG), Bassia scoparia (KCHSC), Lolium rigidum (LOLRI), Matricaria inodora (MATIN), Pharbitis purpurea (PHBPU), Polygonum convolvulus (POLCO), Setaria viridis (SETVI), Veronica persica (VERPE) and Viola tricolor (VIOTR) at an application rate of 320 g of active substance or less per hectare, and good crop plant compatibility in the case of organisms such as Oryza sativa (ORYSA), Zea mays (ZEAMX), Brassica napus (BRSNW), Glycine max (GLXMA) and Triticum aestivum (TRZAS) at an application rate of 320 g or less per hectare.
# [2] = tested on: Alopecurus myosuroides (ALOMY); conditions: visual rating after about 3 weeks; for pest or weed control at 320 g/ha: Alopecurus myosuroides, 504 h, read-out: Post-emergence effect at 320 g/ha against ALOMY in %
# Method: as §1, §2, §3
# [3] = tested on: Amaranthus retroflexus (AMARE); conditions: visual rating after about 3 weeks; for pest or weed control at 80 g/ha / pest or weed control at 320 g/ha: Amaranthus retroflexus, 504 h; for pest or weed control at 80 g/ha: read-out: Post-emergence effect at 80 g/ha against AMARE in %; for pest or weed control at 320 g/ha: read-out: Post-emergence effect at 320 g/ha against AMARE in %
# Method: as §1, §2, §3
# Avena fatua (AVEFA) = conditions: visual rating after about 3 weeks; for pest or weed control at 320 g/ha: Avena fatua, 504 h, read-out: Post-emergence effect at 320 g/ha against AVEFA in %
# Method: as §1, §2, §3
# Bassia scoparia (KCHSC) = conditions: 320 g/ha
# Method: as §1, §2, §3
# [4] = tested on: Digitaria sanguinalis (DIGSA); conditions: visual rating after about 3 weeks; for pest or weed control at 320 g/ha: Digitaria sanguinalis, 504 h, read-out: Post-emergence effect at 320 g/ha against DIGSA in %
# Method: as §1, §2, §3
# [5] = tested on: Echinochloa crus-galli (ECHCG); conditions: visual rating after about 3 weeks; for pest or weed control at 80 g/ha / pest or weed control at 320 g/ha: Echinochloa crus-galli, 504 h; for pest or weed control at 80 g/ha: read-out: Post-emergence effect at 80 g/ha against ECHCG in %; for pest or weed control at 320 g/ha: read-out: Post-emergence effect at 320 g/ha against ECHCG in %
# Method: as §1, §2, §3
# [6] = tested on: Matricaria inodora (MATIN); conditions: visual rating after about 3 weeks; for pest or weed control at 80 g/ha / pest or weed control at 320 g/ha: Tripleurospermum inodorum, 504 h; for pest or weed control at 80 g/ha: read-out: Post-emergence effect at 80 g/ha against MATIN in %; for pest or weed control at 320 g/ha: read-out: Post-emergence effect at 320 g/ha against MATIN in %
# Method: as §1, §2, §3
# [7] = tested on: Pharbitis purpurea (PHBPU); conditions: visual rating after about 3 weeks; for pest or weed control at 80 g/ha / pest or weed control at 320 g/ha: Ipomoea purpurea, 504 h; for pest or weed control at 80 g/ha: read-out: Post-emergence effect at 80 g/ha against PHBPU in %; for pest or weed control at 320 g/ha: read-out: Post-emergence effect at 320 g/ha against PHBPU in %
# Method: as §1, §2, §3
# [8] = tested on: Polygonum convolvulus (POLCO); conditions: visual rating after about 3 weeks; for pest or weed control at 80 g/ha / pest or weed control at 320 g/ha: Fallopia convolvulus, 504 h; for pest or weed control at 80 g/ha: read-out: Post-emergence effect at 80 g/ha against POLCO in %; for pest or weed control at 320 g/ha: read-out: Post-emergence effect at 320 g/ha against POLCO in %
# Method: as §1, §2, §3
# Setaria viridis (SETVI) = conditions: visual rating after about 3 weeks; for pest or weed control at 320 g/ha: Setaria viridis, 504 h, read-out: Post-emergence effect at 320 g/ha against SETVI in %
# Method: as §1, §2, §3
# Viola tricolor (VIOTR) = conditions: for pest or weed control at 80 g/ha / pest or weed control at 320 g/ha: Viola tricolor, 504 h, read-out: Post-emergence effect against VIOTR
# Method: as §1, §2, §3
# Lolium rigidum (LOLRI) = conditions: Lolium rigidum, 504 h, 320 g/ha, visual rating after about 3 weeks, read-out: Post-emergence effect at 320 g/ha against LOLRI in %
# Method: as §1, §2, §3
SMILES,pest or weed control at 320 g/ha [2] [%],pest or weed control at 80 g/ha [3] [%],Post-emergence effect at 80 g/ha against DIGSA in % [4] [%],pest or weed control at 80 g/ha [5] [%],pest or weed control at 80 g/ha [8] [%],pest or weed control at 80 g/ha [1] [%],pest or weed control at 320 g/ha ([1]; 320 g/ha) [%],pest or weed control at 320 g/ha ([3]; 320 g/ha) [%],pest or weed control at 320 g/ha (Avena fatua (AVEFA); 320 g/ha) [%],pest or weed control at 320 g/ha ([4]; 320 g/ha) [%],pest or weed control at 320 g/ha ([5]; 320 g/ha) [%],pest or weed control at 320 g/ha (Lolium rigidum (LOLRI)) [%],pest or weed control at 320 g/ha ([6]; 320 g/ha) [%],pest or weed control at 80 g/ha ([7]; 80 g/ha) [%],pest or weed control at 320 g/ha ([7]; 320 g/ha) [%],pest or weed control at 320 g/ha ([8]; 320 g/ha) [%],pest or weed control at 320 g/ha (Setaria viridis (SETVI); 320 g/ha) [%],pest or weed control at 80 g/ha (Viola tricolor (VIOTR)) [%],pest or weed control at 320 g/ha (Viola tricolor (VIOTR); 320 g/ha) [%],also measured
"CSC(Oc1nn(-c2ncccc2F)c(-c2ccc(F)nc2)c1Br)C(=O)O (single isomer, unassigned) [Example I-25]",90,90,80,80,80,–,–,–,–,–,–,–,–,–,–,–,–,–,–,Post-emergence effect at 320 g/ha against ABUTH in % ([1]; 320 g/ha): 90%; Post-emergence effect at 320 g/ha against AMARE in % ([3]; 320 g/ha): 90%; Post-emergence effect at 320 g/ha against AVEFA in % (Avena fatua (AVEFA); 320 g/ha): 90%; Post-emergence effect against KCHSC (Bassia scoparia (KCHSC)): 90%; Post-emergence effect at 320 g/ha against DIGSA in % ([4]; 320 g/ha): 90%; Post-emergence effect at 320 g/ha against ECHCG in % ([5]; 320 g/ha): 90%; Post-emergence effect at 320 g/ha against MATIN in % ([6]; 320 g/ha): 80%; Post-emergence effect at 80 g/ha against PHBPU in % ([7]; 80 g/ha): 90%; Post-emergence effect at 320 g/ha against PHBPU in % ([7]; 320 g/ha): 90%; Post-emergence effect at 320 g/ha against POLCO in % ([8]; 320 g/ha): 80%; Post-emergence effect at 320 g/ha against SETVI in % (Setaria viridis (SETVI); 320 g/ha): 90%; Post-emergence effect against VIOTR (Viola tricolor (VIOTR); 320 g/ha): 90%
"COC(=O)C(Oc1nn(-c2ncccc2F)c(-c2ccc(F)nc2)c1Br)SC (single isomer, unassigned) [Example I-26]",90,80,90,90,80,80,80,90,90,90,90,90,90,80,90,90,80,90,90,Post-emergence effect at 80 g/ha against ALOMY in % ([2]; 80 g/ha): 80%; Post-emergence effect at 80 g/ha against AVEFA in % (Avena fatua (AVEFA); 80 g/ha): 80%; Post-emergence effect against KCHSC (Bassia scoparia (KCHSC)): 80%; pest or weed control at 80 g/ha [6]: 90%; Post-emergence effect at 20 g/ha against PHBPU in % [7]: 80%; Post-emergence effect at 20 g/ha against POLCO in % ([8]; 20 g/ha): 80%
"CCOC(=O)C(Oc1nn(-c2ccccc2F)c(-c2ccc(F)nc2)c1Br)SC (single isomer, unassigned) [Example I-30]",90,–,80,80,–,–,–,–,–,90,80,80,80,–,80,–,80,–,90,–
COC(=O)C(Oc1nn(-c2ccccc2F)c(-c2ccc(F)nc2)c1Br)SC (stereo not drawn) [Example I-10],100,80,90,80,80,90,90,80,–,90,90,90,90,–,80,80,90,80,90,Post-emergence effect at 20 g/ha against AMARE in % ([3]; 20 g/ha): 80%; pest or weed control at 80 g/ha [6]: 80%; Post-emergence effect at 80 g/ha against SETVI in % (Setaria viridis (SETVI)): 90%
CCOC(=O)C(Oc1nn(-c2ncccc2F)c(-c2ccc(F)nc2)c1Br)SC (stereo not drawn) [Example I-13],80,80,–,80,80,90,90,90,90,90,90,90,–,80,80,90,90,–,80,Post-emergence effect at 80 g/ha against SETVI in % (Setaria viridis (SETVI)): 80%
CSC(Oc1nn(-c2ncccc2F)c(-c2ccc(F)nc2)c1Cl)C(=O)O (stereo not drawn) [Example I-31],80,–,–,80,–,–,–,80,80,80,90,–,80,–,80,80,80,–,–,–
COC(=O)C(Oc1nn(-c2ncccc2F)c(-c2ccc(F)nc2)c1Cl)SC (stereo not drawn) [Example I-56],80,–,–,90,80,80,90,–,90,80,90,90,80,90,90,90,90,80,90,"pest or weed control at 320 g/ha (Bassia scoparia (KCHSC); Bassia scoparia, 504 h, read-out: Post-emergence effect against KCHSC): 80%; Post-emergence effect at 20 g/ha against PHBPU in % [7]: 80%"
